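Following 48 hours of exposure in 96-well plates, responses at five concentrations were used to interpolate endpoints linearly. GI50 = concentration required for 50% inhibition of growth. TGI: total growth inhibition.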
Tests used:
Assay in all cases: NCI anticancer screen, dose series, 48 h
[1] = tested on: MALME-3M melanoma
[2] = tested on: A549 NSCLC
[3] = tested on: HCT-116 colon
[4] = tested on: HT29 colon
[5] = tested on: 786-0 renal
[6] = tested on: MOLT-4 leukemia
[7] = tested on: HL-60(TB) leukemia
[8] = tested on: CAKI-1 renal
[9] = tested on: MDA-MB-231 breast
[10] = tested on: SNB-75 CNS
[11] = tested on: RXF 393 renal
[12] = tested on: TK-10 renal
[13] = tested on: EKVX NSCLC
[14] = tested on: KM12 colon

SMILES	TGI [1]	TGI [2]	TGI [3]	GI50 [4]	TGI [4]	TGI [5]	TGI [6]	TGI [7]	TGI [8]	TGI [9]	GI50 [10]	TGI [11]	TGI [12]	TGI [13]	TGI [14]	TGI [10]
C/C(=C\c1csc(C)n1)[C@@H]1C[C@@H]2O[C@]2(C)CCC[C@H](C)[C@H](O)[C@@H](C)C(=O)C(C)(C)[C@@H](O)CC(=O)O1 (tested in a mixture with another compound)	> 1 µM	> 1 µM	> 0.183 µM	0.000721 µM	> 0.378 µM	> 1 µM	> 0.307 µM	0.0278 µM	> 1 µM	> 0.346 µM	0.00551 µM	0.0211 µM	> 1 µM	> 1 µM	> 0.44 µM	–
NC(=O)CC1(O)C=CC(=O)C=C1	> 100 µM	> 100 µM	> 100 µM	–	> 100 µM	> 100 µM	> 100 µM	> 100 µM	> 100 µM	> 100 µM	–	> 100 µM	> 100 µM	> 100 µM	> 100 µM	> 100 µM
CN(C)Cc1cc(C(=O)/C=C/c2c(Cl)cccc2Cl)cc(CN(C)C)c1O	15.7 µM	29.5 µM	19.6 µM	–	11.6 µM	16.2 µM	30.3 µM	11.7 µM	6.74 µM	15.1 µM	–	18.6 µM	27.8 µM	23.2 µM	7.2 µM	15.7 µM
Cc1cc(C)n(C(=O)C(C)Sc2nnc(SC(C)C(=O)n3nc(C)cc3C)s2)n1 (centres undefined)	> 100 µM	> 100 µM	> 100 µM	–	> 100 µM	> 100 µM	> 100 µM	> 100 µM	> 100 µM	> 100 µM	–	> 100 µM	> 100 µM	> 100 µM	> 100 µM	> 100 µM
CNC(=O)C(C)NC(=O)C(Cc1ccccc1)NC(=O)OC(C)(C)C (centres undefined)	> 100 µM	> 100 µM	> 100 µM	–	> 100 µM	> 100 µM	> 100 µM	> 100 µM	> 100 µM	> 100 µM	–	> 100 µM	> 100 µM	> 100 µM	> 100 µM	> 100 µM
CCC/C(Cl)=N\OC(=O)Nc1ccc(Br)cc1	10.8 µM	45.2 µM	26.2 µM	–	44.1 µM	18.5 µM	6.07 µM	7.22 µM	5.77 µM	33.8 µM	–	31 µM	27.2 µM	29 µM	16.2 µM	29 µM
CC(=O)NNc1nc(C)c(C(/C=C/c2ccccc2O)=N/NC(=O)c2ccncc2)s1	> 100 µM	> 100 µM	> 100 µM	–	> 100 µM	> 100 µM	> 100 µM	> 100 µM	> 100 µM	> 100 µM	–	> 100 µM	> 100 µM	> 100 µM	> 100 µM	> 100 µM
C=CCN1C(=O)N/C(=C\c2ccc(Cl)cc2)C1=O	> 100 µM	> 100 µM	> 100 µM	–	> 100 µM	> 100 µM	> 100 µM	> 100 µM	> 100 µM	> 100 µM	–	> 100 µM	> 100 µM	> 100 µM	> 100 µM	> 100 µM
c1ccc2c(OCC3CO3)ccc(OCC3CO3)c2c1 (centres undefined)	20.5 µM	16.9 µM	2.76 µM	–	17.5 µM	5.57 µM	2.99 µM	2.4 µM	3.32 µM	22.3 µM	–	7.71 µM	26.7 µM	32.7 µM	16.1 µM	28.4 µM
Cc1ccc(S(=O)(=O)Oc2coc(CO)cc2=O)cc1	44.5 µM	28.1 µM	15 µM	–	30.4 µM	23.4 µM	> 88.5 µM	12.5 µM	10.4 µM	41.7 µM	–	30 µM	44.2 µM	30.1 µM	18.7 µM	33.3 µM
COc1ccc2c(c1)-c1c(c3ccccc3n1CCN1CCCCC1)CC2	39.3 µM	> 88.9 µM	29.5 µM	–	24.5 µM	41.9 µM	47.4 µM	20.4 µM	> 75.2 µM	31.1 µM	–	> 100 µM	54.6 µM	70.5 µM	> 56.9 µM	> 100 µM
CCOC(=O)Cc1nc2nn(Cc3ccccc3)cc2c(=O)[nH]1	> 100 µM	> 100 µM	> 100 µM	–	> 100 µM	> 100 µM	> 100 µM	> 100 µM	> 100 µM	> 100 µM	–	> 100 µM	> 100 µM	> 100 µM	> 100 µM	> 100 µM
CCC1=NC(N/N=C/c2ccccc2O)=N/C1=C\c1ccccc1O	85.4 µM	> 100 µM	39.8 µM	–	37.5 µM	> 72.1 µM	> 61.5 µM	10.6 µM	> 100 µM	> 100 µM	–	> 73.4 µM	> 54.6 µM	> 100 µM	> 66.1 µM	> 100 µM
CC1=C/C(=N\N(C)C)C(C(O)(C(F)(F)F)C(F)(F)F)C(C)(C)C1 (centres undefined)	> 100 µM	> 100 µM	> 100 µM	–	> 100 µM	> 100 µM	> 100 µM	> 100 µM	> 100 µM	> 100 µM	–	> 100 µM	> 100 µM	> 100 µM	> 100 µM	> 100 µM
COc1ccc2cc(CNCCCN3CCN(CCCNCc4ccc5cc(OC)ccc5c4)CC3)ccc2c1	3.14 µM	3.31 µM	2.56 µM	–	1.65 µM	2.88 µM	5.72 µM	0.594 µM	3.2 µM	3.42 µM	–	2.85 µM	3.3 µM	3.18 µM	2.14 µM	3.08 µM
O=C(n1[nH]c(=O)n(-c2ccc([N+](=O)[O-])cc2)c1=O)C(Cl)(Cl)Cl	> 75 µM	> 75 µM	> 75 µM	–	> 75 µM	> 75 µM	> 75 µM	> 75 µM	> 75 µM	> 75 µM	–	> 75 µM	> 75 µM	> 75 µM	> 75 µM	> 75 µM
CCN(CC)CCN1CCN=c2c3cc(OC)ccc3n3cnc4ccc1c2c43	2.74 µM	2.78 µM	2.84 µM	–	1.81 µM	1.72 µM	0.999 µM	1.2 µM	2.23 µM	2.33 µM	–	1.52 µM	4.93 µM	3.21 µM	2.45 µM	2.27 µM
COC(=O)c1cccc(C)c1C1CN=NC12Cc1c(ccc(C)c1C)C2=O (centres undefined)	78.1 µM	> 100 µM	> 100 µM	–	> 100 µM	> 100 µM	86.7 µM	37.1 µM	> 100 µM	> 100 µM	–	92.4 µM	> 100 µM	57.9 µM	> 100 µM	> 100 µM
C#CCOC(=O)C(N)CS (centres undefined)	> 100 µM	> 100 µM	> 100 µM	–	> 100 µM	> 100 µM	> 100 µM	> 100 µM	> 100 µM	> 100 µM	–	> 100 µM	> 100 µM	> 100 µM	> 100 µM	> 100 µM
Cc1cc2c(cc1Cl)SC(NNC(=O)c1ccncc1)=NS2(=O)=O	> 10 µM	> 10 µM	> 10 µM	–	> 10 µM	> 10 µM	> 10 µM	> 10 µM	> 10 µM	> 10 µM	–	> 10 µM	> 10 µM	> 10 µM	> 10 µM	> 10 µM
Nc1ccccc1C(=O)NNC(=O)c1ccccc1N	> 100 µM	> 100 µM	> 100 µM	–	> 100 µM	> 100 µM	> 100 µM	> 100 µM	> 100 µM	> 100 µM	–	> 100 µM	> 100 µM	> 100 µM	> 100 µM	> 100 µM
O=c1[nH]c2nccn2c(Cl)c1Br	38.3 µM	> 100 µM	> 100 µM	–	48.8 µM	> 100 µM	42.6 µM	33.5 µM	40.7 µM	37.4 µM	–	20.8 µM	> 100 µM	40.3 µM	> 100 µM	77.8 µM
